# Earlier results, collected in patent US20150038447A1, “ORGAN PROTECTION, PRESERVATION AND RECOVERY” (Hibernation Therapeutics, A KF LLC, priority 2007, published 2015).
# pKi: −log10 of the molar value.
# Experiments:
# human NK(1) receptor = human NK(1) receptor (Homo sapiens, UniProt P25103)
# NK(3) receptor = biological target: T1, NK(3) receptor (Homo sapiens, UniProt P29371); conditions: NK(1) versus NK(3)
# T1 sequence (P29371 1-465): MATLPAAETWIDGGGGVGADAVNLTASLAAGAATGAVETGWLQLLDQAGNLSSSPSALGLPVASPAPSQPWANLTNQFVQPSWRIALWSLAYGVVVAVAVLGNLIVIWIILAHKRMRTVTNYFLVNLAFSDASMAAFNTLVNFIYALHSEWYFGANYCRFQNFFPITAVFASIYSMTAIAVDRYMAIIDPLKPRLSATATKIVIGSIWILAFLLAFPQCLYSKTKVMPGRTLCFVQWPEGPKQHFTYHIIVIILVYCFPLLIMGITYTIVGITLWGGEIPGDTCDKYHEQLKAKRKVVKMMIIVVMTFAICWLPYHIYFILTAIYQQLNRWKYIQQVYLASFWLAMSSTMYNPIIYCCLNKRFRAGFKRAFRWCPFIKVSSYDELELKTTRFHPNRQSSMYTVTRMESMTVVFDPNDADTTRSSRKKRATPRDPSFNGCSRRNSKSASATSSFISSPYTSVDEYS
# NK(2) receptor = biological target: T2, NK(2) receptor (Homo sapiens, UniProt P21452); conditions: NK(1) versus NK(2)
# T2 sequence (P21452 1-398): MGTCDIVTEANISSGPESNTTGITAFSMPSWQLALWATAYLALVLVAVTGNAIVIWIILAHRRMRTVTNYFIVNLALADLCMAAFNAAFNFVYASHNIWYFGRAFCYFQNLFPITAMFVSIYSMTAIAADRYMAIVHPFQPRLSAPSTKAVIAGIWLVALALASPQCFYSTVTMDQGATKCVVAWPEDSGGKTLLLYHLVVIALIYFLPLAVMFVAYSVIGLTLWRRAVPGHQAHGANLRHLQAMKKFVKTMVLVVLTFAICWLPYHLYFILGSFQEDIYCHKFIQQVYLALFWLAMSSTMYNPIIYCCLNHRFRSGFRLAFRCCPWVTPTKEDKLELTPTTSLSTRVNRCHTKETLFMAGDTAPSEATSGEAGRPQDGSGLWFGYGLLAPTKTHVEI
# [1] = given orally and/or intravenous at 10, 25, 50, and 100 mg/kg body weight
# adenosine deaminase = biological target: T3, adenosine deaminase (Bos taurus, UniProt P56658); conditions: calf intestinal mucosa; read-out: Ki (competitive inhibitor of adenosine deaminase)
# T3 construct: from tissue; host or cells: calf intestinal mucosa
# [2] = 400 mg daily tablets
# [3] = in vivo
# anaesthetised rats = conditions: previous studies (Canyon and Dobson, 2004)
# Sequence of human NK(1) receptor (P25103 whole entry): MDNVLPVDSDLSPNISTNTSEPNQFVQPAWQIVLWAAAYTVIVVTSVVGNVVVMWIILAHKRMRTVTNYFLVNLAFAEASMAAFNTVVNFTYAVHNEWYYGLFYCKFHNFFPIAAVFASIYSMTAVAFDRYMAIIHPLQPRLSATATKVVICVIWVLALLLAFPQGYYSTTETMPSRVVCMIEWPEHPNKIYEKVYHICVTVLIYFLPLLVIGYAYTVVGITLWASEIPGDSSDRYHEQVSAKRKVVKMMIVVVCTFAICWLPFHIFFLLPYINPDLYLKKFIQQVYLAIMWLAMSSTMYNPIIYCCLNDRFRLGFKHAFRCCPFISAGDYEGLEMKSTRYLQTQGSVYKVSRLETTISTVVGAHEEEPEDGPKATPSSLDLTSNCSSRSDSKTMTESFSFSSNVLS
# T3 sequence (P56658 whole entry): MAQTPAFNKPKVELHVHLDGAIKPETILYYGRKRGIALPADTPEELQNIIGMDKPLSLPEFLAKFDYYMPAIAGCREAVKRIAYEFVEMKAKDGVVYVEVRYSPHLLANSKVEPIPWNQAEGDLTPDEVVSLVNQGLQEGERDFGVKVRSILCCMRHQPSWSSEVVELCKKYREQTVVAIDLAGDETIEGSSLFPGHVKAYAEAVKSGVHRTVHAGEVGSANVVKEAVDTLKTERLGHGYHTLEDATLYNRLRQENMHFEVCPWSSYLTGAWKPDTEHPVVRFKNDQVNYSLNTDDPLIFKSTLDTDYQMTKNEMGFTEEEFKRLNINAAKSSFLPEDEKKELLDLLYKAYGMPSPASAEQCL
structure (smiles),measurement,setting,value
"Cc1cccc(C)c1NC(=O)C[C@H]1CCN(C(=O)c2cc(C(F)(F)F)cc(C(F)(F)F)c2)[C@@H](Cc2ccccc2)C1.O=C(O)C[C@H](O)C(=O)O (relative stereo) [R116301, (2R-trans)-4-[1-[3,5-bis(trifluoromethyl)benzoyl]-2-(phenylmethyl)-4-piperidinyl]-N-(2,6-dimethylphenyl)-1-acetamide (S)-Hydroxybutanedioate]",pKi,human NK(1) receptor,9.35
same,selectivity toward NK(3) receptor,NK(3) receptor,over 200 fold
same,selectivity toward NK(2) receptor,NK(2) receptor,over 200 fold
"NC(=O)c1ncn([C@@H]2O[C@H](CO)[C@@H](O)[C@H]2O)c1N [Acadesine, 5-amino-4-imidazole carboxamide ribonucleoside]",safety in humans,[1],safe
same,pKi,adenosine deaminase,3.44
OCCN(CCO)c1nc(N2CCCCC2)c2nc(N(CCO)CCO)nc(N3CCCCC3)c2n1 [Dipyridamole],plasma level,[2],about 0.4 μg/ml
same,plasma level (concentration),[2],~800 nM
CSCC[C@@H]1NC(=O)[C@H](CC(C)C)NC(=O)[C@H](CCCNC(=N)N)NC(=O)[C@H](CO)NC(=O)[C@@H]2CSSC[C@@H]3NC(=O)[C@H](CO)NC(=O)CNC(=O)[C@H]([C@@H](C)O)NC(=O)[C@H](CSSC[C@H](N)C(=O)N[C@@H](CCCCN)C(=O)NCC(=O)N[C@@H](CCCCN)C(=O)NCC(=O)N[C@@H](C)C(=O)N[C@@H](CCCCN)C(=O)N2)NC(=O)[C@H](CSSC[C@@H](C(N)=O)NC(=O)[C@H](CCCCN)NC(=O)CNC(=O)[C@H](CO)NC(=O)[C@H](CCCNC(=N)N)NC3=O)NC(=O)[C@H](CC(=O)O)NC(=O)[C@H](Cc2ccc(O)cc2)NC1=O [Omega conotoxin MVIIA],potency as an analgesic relative to morphine,[3],100-1000 fold
Nc1ncnc2c1ncn2[C@@H]1O[C@H](CO)[C@@H](O)[C@H]1O [adenosine],animals that die during 30 min ischaemia from VF,anaesthetised rats,about 50%
same,half life in the blood,,about 10 seconds
